Experimental data taken from ChEMBL document CHEMBL5537210, “Probing Isosteric Replacement for Immunoadjuvant Design: Bis-Aryl Triazole Trehalolipids are Mincle Agonists” (ACS Med Chem Lett, 2024).
The source made the active and inactive calls. No cut-off for these calls is given here.

How the values were obtained:
Assay type in all cases: functional, cell-based
Settings in all cases: dose 0.1-1 nmol
2B4 = assay: Induction of NFAT-GFP signal in mouse 2B4 reporter cells expressing mMincle + FcRgamma at 0.1 to 1 nmol incubated for 18 hrs by flow cytometry analysis
BMDM [1] = assay: Induction of cytokine production in wild type C57BL/6 mouse BMDM cells assessed as IL-1beta secretion at 0.1 to 1 nmol incubated for 24 hrs by ELISA method
BMDM [2] = assay: Induction of cytokine production in wild type C57BL/6 mouse BMDM cells assessed as IL-6 secretion at 0.1 to 1 nmol incubated for 24 hrs by ELISA method
BMDM [3] = assay: Induction of cytokine production in wild type C57BL/6 mouse BMDM cells assessed as IL-10 secretion at 0.1 to 1 nmol incubated for 24 hrs by ELISA method

Row | SMILES | Activity (2B4) | Activity (BMDM [1]) | Activity (BMDM [2]) | Activity (BMDM [3])
1 | CCCCCCCCOc1cc(OCCCCCCCC)cc(-c2cn(C[C@H]3O[C@H](O[C@H]4O[C@H](Cn5cc(-c6cc(OCCCCCCCC)cc(OCCCCCCCC)c6)nn5)[C@@H](O)[C@H](O)[C@H]4O)[C@H](O)[C@@H](O)[C@@H]3O)nn2)c1 | Active | inactive | Active | Active
2 | CCCCCCCCOc1ccc(-c2cn(C[C@H]3O[C@H](O[C@H]4O[C@H](Cn5cc(-c6ccc(OCCCCCCCC)cc6OCCCCCCCC)nn5)[C@@H](O)[C@H](O)[C@H]4O)[C@H](O)[C@@H](O)[C@@H]3O)nn2)c(OCCCCCCCC)c1 | Active | Active | Active | Active
3 | CCCCCCCCOc1cccc(-c2cn(C[C@H]3O[C@H](O[C@H]4O[C@H](Cn5cc(-c6cccc(OCCCCCCCC)c6OCCCCCCCC)nn5)[C@@H](O)[C@H](O)[C@H]4O)[C@H](O)[C@@H](O)[C@@H]3O)nn2)c1OCCCCCCCC | Active | Active | Active | Active
4 | CCCCCCCCOc1ccc(-c2cn(C[C@H]3O[C@H](O[C@H]4O[C@H](Cn5cc(-c6ccc(OCCCCCCCC)c(OCCCCCCCC)c6)nn5)[C@@H](O)[C@H](O)[C@H]4O)[C@H](O)[C@@H](O)[C@@H]3O)nn2)cc1OCCCCCCCC | Active | inactive | inactive | inactive
5 | CCCCCCCCOc1ccc(-c2cn(C[C@H]3O[C@H](O[C@H]4O[C@H](Cn5cc(-c6ccc(OCCCCCCCC)cc6)nn5)[C@@H](O)[C@H](O)[C@H]4O)[C@H](O)[C@@H](O)[C@@H]3O)nn2)cc1 | Active | – | – | –
6 | CCCCCCCCOc1ccccc1-c1cn(C[C@H]2O[C@H](O[C@H]3O[C@H](Cn4cc(-c5ccccc5OCCCCCCCC)nn4)[C@@H](O)[C@H](O)[C@H]3O)[C@H](O)[C@@H](O)[C@@H]2O)nn1 | Active | – | – | –
7 | O[C@@H]1[C@@H](O)[C@@H](O[C@H]2O[C@H](Cn3cc(-c4ccccc4)nn3)[C@@H](O)[C@H](O)[C@H]2O)O[C@H](Cn2cc(-c3ccccc3)nn2)[C@H]1O | inactive | – | – | –
